From patent US10167262B2, “Herbicidal substituted 3-arylpyrazoles” (FMC CORPORATION, priority 2014, dated 2019)
Read-outs that look alike come from different tables or passages of the source.

How the values were obtained:
Type in all cases: in vivo
[1] = tested on: barnyardgrass (Echinochloa crus-galli); experiment: Test A pre-/postemergence greenhouse herbicide test, visual injury rating 0-100; settings: for pest or weed control at 500 g/ha: 500 g ai/ha; for Plant response rating (0 to 100 scale), Barnyardgrass: 1000 g ai/ha
Outline: (§1)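 Seeds sown in loam soil–sand blend; preemergence directed soil spray and, simultaneously, postemergence spray on plants 2 to 10 cm tall at one- to two-leaf stage. Compounds formulated in non-phytotoxic solvent mixture with surfactant. Injury rated visually versus untreated controls after ~10 days in greenhouse.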

[2] = tested on: corn (Zea mays); experiment: as above; settings: for plant injury at 500 g/ha: 500 g ai/ha; for Plant response rating (0 to 100 scale), Corn: 1000 g ai/ha
Outline: as §1

[3] = tested on: giant foxtail (Setaria faberii); experiment: as above; settings: for pest or weed control at 500 g/ha: 500 g ai/ha; for Plant response rating (0 to 100 scale), Foxtail, Giant: 1000 g ai/ha
Outline: as §1

[4] = tested on: large (Lg) crabgrass (Digitaria sanguinalis); experiment: as above; settings: for pest or weed control at 500 g/ha: 500 g ai/ha; for Plant response rating (0 to 100 scale), Crabgrass, Large: 1000 g ai/ha
Outline: as §1

[5] = tested on: morningglory (Ipomoea spp.); experiment: as above; settings: for pest or weed control at 500 g/ha: 500 g ai/ha; for Plant response rating (0 to 100 scale), Morningglory: 1000 g ai/ha
Outline: as §1

[6] = tested on: pigweed (Amaranthus retroflexus); experiment: as above; settings: for pest or weed control at 500 g/ha: 500 g ai/ha; for Plant response rating (0 to 100 scale), Pigweed: 1000 g ai/ha
Outline: as §1

[7] = tested on: velvetleaf (Abutilon theophrasti); experiment: as above; settings: for pest or weed control at 500 g/ha: 500 g ai/ha; for Plant response rating (0 to 100 scale), Velvetleaf: 1000 g ai/ha
Outline: as §1

[8] = tested on: wheat (Triticum aestivum); experiment: as above; settings: for Plant response rating (0 to 100 scale), Wheat: 1000 g ai/ha
Outline: as §1

[9] = tested on: Italian ryegrass (Lolium multiflorum); experiment: Test C pre-/postemergence greenhouse test, plant response rating 0-100; settings: Postemergence
Outline: (§2)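 After treatment, pots stay in the greenhouse 13–15 days before each species is compared with untreated controls and given a 0–100 visual score. Preemergence seeds are in loam blended with sand; postemergence plants, 1–4 leaves, are in peat-based medium.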

[10] = tested on: giant foxtail (Setaria faberii); experiment: as above; settings: Postemergence
Outline: as §2

[11] = tested on: soybean (Glycine max); experiment: as above; settings: Postemergence
Outline: as §2

[12] = tested on: chickweed (common chickweed, Stellaria media); experiment: Test C postemergence greenhouse test, plant response rating 0-100
Outline: (§3)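 Each weed species was grown in potting medium and sprayed after emergence, when 2–18 cm tall. Ratings, made by eye relative to control pots, were recorded 13–15 days later using a scale where 0 is no effect.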

[13] = tested on: kochia (Kochia scoparia); experiment: as above
Outline: as §3

[14] = tested on: wild oat (Avena fatua); experiment: as above
Outline: as §3

CCCn1cc(C(=O)c2ccccc2)c(-c2cc(Cl)cc(Cl)c2)n1 [Compound 61, [3-(3,5-dichlorophenyl)-1-propyl-1H-pyrazol-4-yl]phenylmethanone]
10%: pest or weed control at 250 g/ha ([10]; Setaria faberi, post-emergence, 250 g ai/ha, scale 0 to 100) | plant injury at 125 g/ha ([11]; Glycine max, post-emergence, 125 g ai/ha, read-out: Plant response rating (0 to 100), Soybean)
0%: pest or weed control at 125 g/ha ([1]; Echinochloa crus-galli, post-emergence, 240 h, Postemergence, 125 g ai/ha, read-out: Plant response rating (0 to 100 scale), Barnyardgrass) | pest or weed control at 500 g/ha ([1]; Echinochloa crus-galli, post-emergence, 240 h, Postemergence, read-out: Plant response rating (0 to 100 scale), Barnyardgrass) | pest or weed control at 500 g/ha ([1]; Echinochloa crus-galli, pre-emergence, 240 h, Preemergence, read-out: Plant response rating (0 to 100 scale), Barnyardgrass) | plant injury at 125 g/ha ([2]; Zea mays, post-emergence, 240 h, Postemergence, 125 g ai/ha, read-out: Plant response rating (0 to 100 scale), Corn) | plant injury at 500 g/ha ([2]; Zea mays, post-emergence, 240 h, Postemergence, read-out: Plant response rating (0 to 100 scale), Corn) | plant injury at 500 g/ha ([2]; Zea mays, pre-emergence, 240 h, Preemergence, read-out: Plant response rating (0 to 100 scale), Corn) | pest or weed control at 125 g/ha ([3]; Setaria faberi, post-emergence, 240 h, Postemergence, 125 g ai/ha, read-out: Plant response rating (0 to 100 scale), Foxtail, Giant) | pest or weed control at 500 g/ha ([3]; Setaria faberi, post-emergence, 240 h, Postemergence, read-out: Plant response rating (0 to 100 scale), Foxtail, Giant) | pest or weed control at 500 g/ha ([3]; Setaria faberi, pre-emergence, 240 h, Preemergence, read-out: Plant response rating (0 to 100 scale), Foxtail, Giant) | pest or weed control at 125 g/ha ([4]; Digitaria sanguinalis, post-emergence, 240 h, Postemergence, 125 g ai/ha, read-out: Plant response rating (0 to 100 scale), Crabgrass, Large) | pest or weed control at 500 g/ha ([4]; Digitaria sanguinalis, post-emergence, 240 h, Postemergence, read-out: Plant response rating (0 to 100 scale), Crabgrass, Large) | pest or weed control at 500 g/ha ([4]; Digitaria sanguinalis, pre-emergence, 240 h, Preemergence, read-out: Plant response rating (0 to 100 scale), Crabgrass, Large) | pest or weed control at 125 g/ha ([5]; Ipomoea, post-emergence, 240 h, Postemergence, 125 g ai/ha, read-out: Plant response rating (0 to 100 scale), Morningglory) | pest or weed control at 500 g/ha ([5]; Ipomoea, post-emergence, 240 h, Postemergence, read-out: Plant response rating (0 to 100 scale), Morningglory) | pest or weed control at 500 g/ha ([5]; Ipomoea, pre-emergence, 240 h, Preemergence, read-out: Plant response rating (0 to 100 scale), Morningglory) | plant injury at 125 g/ha ([8]; Triticum aestivum, post-emergence, 240 h, Postemergence, 125 g ai/ha, read-out: Plant response rating (0 to 100 scale), Wheat) | plant injury at 500 g/ha ([8]; Triticum aestivum, post-emergence, 240 h, Postemergence, 500 g ai/ha, read-out: Plant response rating (0 to 100 scale), Wheat) | pest or weed control at 62 g/ha ([9]; Lolium multiflorum, post-emergence, 62 g ai/ha, read-out: Plant response rating (0 to 100), Ryegrass, Italian) | pest or weed control at 125 g/ha ([9]; Lolium multiflorum, post-emergence, 125 g ai/ha, read-out: Plant response rating (0 to 100), Ryegrass, Italian) | pest or weed control at 250 g/ha ([9]; Lolium multiflorum, post-emergence, 250 g ai/ha, scale 0 to 100) | plant injury at 62 g/ha ([11]; Glycine max, post-emergence, 62 g ai/ha, read-out: Plant response rating (0 to 100), Soybean) | pest or weed control at 62 g/ha ([14]; Avena fatua, post-emergence, 62 g ai/ha) | pest or weed control at 125 g/ha ([14]; Avena fatua, post-emergence, 125 g ai/ha) | pest or weed control at 250 g/ha ([14]; Avena fatua, post-emergence, 250 g ai/ha, scale 0 to 100)
40%: pest or weed control at 500 g/ha ([7]; Abutilon theophrasti, pre-emergence, 240 h, Preemergence, read-out: Plant response rating (0 to 100 scale), Velvetleaf) | pest or weed control at 62 g/ha ([13]; Bassia scoparia, post-emergence, 62 g ai/ha)
45%: pest or weed control at 125 g/ha ([13]; Bassia scoparia, post-emergence, 125 g ai/ha)
15%: plant injury at 250 g/ha ([11]; Glycine max, post-emergence, 250 g ai/ha, scale 0 to 100)
20%: pest or weed control at 31 g/ha ([12]; Stellaria media, post-emergence, 31 g ai/ha)
75%: pest or weed control at 125 g/ha ([12]; Stellaria media, post-emergence, 125 g ai/ha) | pest or weed control at 250 g/ha ([12]; Stellaria media, post-emergence, 250 g ai/ha, scale 0 to 100)
0: Barnyardgrass plant response rating (0 = no effect, 100 = complete control) ([1]; Preemergence, 125 g ai/ha) | Corn plant response rating (0 = no effect, 100 = complete control) ([2]; Preemergence, 125 g ai/ha) | Foxtail, Giant plant response rating (0 = no effect, 100 = complete control) ([3]; Preemergence, 125 g ai/ha) | Crabgrass, Large plant response rating (0 = no effect, 100 = complete control) ([4]; Preemergence, 125 g ai/ha) | Morningglory plant response rating (0 = no effect, 100 = complete control) ([5]; Preemergence, 125 g ai/ha) | Pigweed plant response rating (0 = no effect, 100 = complete control) ([6]; Preemergence, 125 g ai/ha) | Velvetleaf plant response rating (0 = no effect, 100 = complete control) ([7]; Preemergence, 125 g ai/ha) | Wheat plant response rating (0 = no effect, 100 = complete control) ([8]; Preemergence, 125 g ai/ha)
80%: pest or weed control at 125 g/ha ([6]; Amaranthus retroflexus, post-emergence, 240 h, Postemergence, 125 g ai/ha, read-out: Plant response rating (0 to 100 scale), Pigweed) | pest or weed control at 125 g/ha ([7]; Abutilon theophrasti, post-emergence, 240 h, Postemergence, 125 g ai/ha, read-out: Plant response rating (0 to 100 scale), Velvetleaf)
90%: pest or weed control at 500 g/ha ([6]; Amaranthus retroflexus, post-emergence, 240 h, Postemergence, read-out: Plant response rating (0 to 100 scale), Pigweed) | pest or weed control at 500 g/ha ([6]; Amaranthus retroflexus, pre-emergence, 240 h, Preemergence, read-out: Plant response rating (0 to 100 scale), Pigweed) | pest or weed control at 500 g/ha ([7]; Abutilon theophrasti, post-emergence, 240 h, Postemergence, read-out: Plant response rating (0 to 100 scale), Velvetleaf)
50%: pest or weed control at 250 g/ha ([13]; Bassia scoparia, post-emergence, 250 g ai/ha, scale 0 to 100)
5%: pest or weed control at 31 g/ha ([10]; Setaria faberi, post-emergence, 31 g ai/ha, read-out: Plant response rating (0 to 100), Foxtail, Giant) | pest or weed control at 62 g/ha ([10]; Setaria faberi, post-emergence, 62 g ai/ha, read-out: Plant response rating (0 to 100), Foxtail, Giant) | pest or weed control at 125 g/ha ([10]; Setaria faberi, post-emergence, 125 g ai/ha, read-out: Plant response rating (0 to 100), Foxtail, Giant)

Clc1cc(Cl)cc(-c2n[nH]cc2C(=NNc2ccccc2Cl)c2ccccc2)c1 [Compound 66]
0: Plant response rating (0 to 100 scale), Barnyardgrass ([1]; Postemergence) | Plant response rating (0 to 100 scale), Barnyardgrass ([1]; Preemergence) | Plant response rating (0 to 100 scale), Corn ([2]; Postemergence) | Plant response rating (0 to 100 scale), Corn ([2]; Preemergence) | Plant response rating (0 to 100 scale), Foxtail, Giant ([3]; Postemergence) | Plant response rating (0 to 100 scale), Foxtail, Giant ([3]; Preemergence) | Plant response rating (0 to 100 scale), Crabgrass, Large ([4]; Postemergence) | Plant response rating (0 to 100 scale), Crabgrass, Large ([4]; Preemergence) | Plant response rating (0 to 100 scale), Morningglory ([5]; Postemergence) | Plant response rating (0 to 100 scale), Morningglory ([5]; Preemergence) | Plant response rating (0 to 100 scale), Wheat ([8]; Postemergence) | Plant response rating (0 to 100 scale), Wheat ([8]; Preemergence) | Plant response rating (0 to 100), Ryegrass, Italian ([9]; 62 g ai/ha) | Plant response rating (0 to 100), Ryegrass, Italian ([9]; 125 g ai/ha) | Plant response rating, Ryegrass, Italian ([9]; 250 g ai/ha, scale 0 to 100) | Plant response rating, Ryegrass, Italian ([9]; 500 g ai/ha, scale 0 to 100) | Plant response rating (0 to 100), Foxtail, Giant ([10]; 62 g ai/ha) | Plant response rating (0 to 100), Foxtail, Giant ([10]; 125 g ai/ha) | Plant response rating, Foxtail, Giant ([10]; 250 g ai/ha, scale 0 to 100) | Plant response rating, Foxtail, Giant ([10]; 500 g ai/ha, scale 0 to 100) | Plant response rating (0 to 100), Soybean ([11]; 62 g ai/ha) | Plant response rating (0 to 100), Soybean ([11]; 125 g ai/ha) | Plant response rating, Soybean ([11]; 250 g ai/ha, scale 0 to 100) | Plant response rating (0 to 100), Oat, Wild ([14]; 62 g ai/ha) | Plant response rating (0 to 100), Oat, Wild ([14]; 125 g ai/ha) | Plant response rating, Oat, Wild ([14]; 250 g ai/ha, scale 0 to 100) | Plant response rating, Oat, Wild ([14]; 500 g ai/ha, scale 0 to 100)
5: Plant response rating, Soybean ([11]; 500 g ai/ha, scale 0 to 100)
75: Plant response rating, Kochia ([13]; 250 g ai/ha, scale 0 to 100)
90: Plant response rating (0 to 100 scale), Velvetleaf ([7]; Postemergence)
100: Plant response rating (0 to 100), Chickweed ([12]; 62 g ai/ha) | Plant response rating (0 to 100), Chickweed ([12]; 125 g ai/ha) | Plant response rating, Chickweed ([12]; 250 g ai/ha, scale 0 to 100) | Plant response rating, Chickweed ([12]; 500 g ai/ha, scale 0 to 100)
65: Plant response rating (0 to 100), Kochia ([13]; 125 g ai/ha)
60: Plant response rating (0 to 100), Kochia ([13]; 62 g ai/ha)
80: Plant response rating (0 to 100 scale), Pigweed ([6]; Postemergence) | Plant response rating (0 to 100 scale), Pigweed ([6]; Preemergence) | Plant response rating (0 to 100 scale), Velvetleaf ([7]; Preemergence)
95: Plant response rating, Kochia ([13]; 500 g ai/ha, scale 0 to 100)
